Laboratory results taken from US20060276486A1, “Lklf/klf2 gene expression promoter” (KOWA CO., KTD., priority 2003, published 2006).

Legend:
[1] = system: LKLF/KLF2 gene; experiment: LKLF/KLF2 gene expression analysis in HUVEC by Human Genome Focus Array (GeneChip); type: cell-based; conditions: control 271
Experimental: Two days after inoculation of normal human umbilical vein endothelial cells (HUVEC) at 3×10^5 cells/10 cm dish, pitavastatin calcium (indicated as “Pit” in FIG. 1) was added to 1.1 μmol/L. Dimethyl sulfoxide, a solvent for pitavastatin calcium, was added to a control (final concentration: 0.0066 v/v %). Eight hours after the addition, total RNAs were extracted with “ISOGEN” (trade mark, product of NIPPON GENE CO., LTD.). The following procedures were conducted in accordance with the procedures manual of Affymetrix. Inc. Described specifically, following the methods known per se in the art, mRNA was isolated from each total RNA obtained above, and based on the mRNA, cDNA was synthesized. Further, biotin-labeled cRNA was synthesized by in vitro transcription. Subsequent to purification, the biotin-labeled cRNA was subjected to fragmentation by heat treatment to prepare fragmented cRNA for use in a gene expression analysis.
Gene expression analysis method: The fragmented cRNA was poured into “Human Genome Focus Array” (trade name, product of Affymetrix, Inc.), and hybridization was conducted at 45° C. for 16 hours. […] The information was analyzed by “GENECHIP SOFTWARE” (trade name, product of Affymetrix, Inc.) to effect a comparison in expression level.

[2] = system: LKLF/KLF2 gene; experiment: LKLF/KLF2 gene expression in HUVEC by reverse transcription and TaqMan analysis (ABI PRISM 7000); type: cell-based, human; conditions: for activities to promote the expression of LKLF/KLF2 gene (summary statement): cultured human cell system; for effect of added metabolite on the increase of LKLF/KLF2 gene expression by pitavastatin calcium: pitavastatin calcium 1 μmol/L in combination with MVA 100 μmol/L, FPP, GGPP or Cho 10 μmol/L, 8 hours

Structure (SMILES) | activities to promote the expression of LKLF/KLF2 gene (summary statement) [2] | effect of added metabolite on the increase of LKLF/KLF2 gene expression by pitavastatin calcium ([2]; HUVEC) | further results
O=C(O)C[C@H](O)C[C@H](O)/C=C/c1c(C2CC2)nc2ccccc2c1-c1ccc(F)cc1 [pitavastatin calcium, (3R,5S,6E)-7-[2-cyclopropyl-4-(4-fluorophenyl)-3-quinolyl]-3,5-dihydroxy-6-heptenoic acid] | has activities to promote the expression of LKLF/KLF2 gene |  | expression of LKLF/KLF2 gene in HUVEC (expression level) with addition of GGPP ([1]; pitavastatin calcium 1.1 μmol/L plus geranylgeranyl pyrophosphate (GGPP), 8 hours): 355; expression of LKLF/KLF2 gene in HUVEC (expression level) ([1]; pitavastatin calcium 1.1 μmol/L, 8 hours after addition): 761; increase of expression of LKLF/KLF2 gene in comparison with the group added with no drug ([2]; HUVEC, 1 μmol/L alone, 8 hours after addition): 693%
C[C@@](O)(CCO)CC(=O)O [mevalonic acid] |  | reduced | 
CC(C)=CCC/C(C)=C/CC/C(C)=C/COP(=O)(O)OP(=O)(O)O [farnesyl pyrophosphate] |  | reduced | 
CSCC[C@H](NC(=O)c1ccc(NC[C@@H](N)CS)cc1-c1ccccc1)C(=O)O [FTI-276] | in possession of activities to promote the expression of LKLF/KLF2 gene |  | 
COC(=O)[C@H](CC(C)C)NC(=O)c1ccc(NC[C@@H](N)CS)cc1-c1ccccc1 [GGTI-286] | in possession of activities to promote the expression of LKLF/KLF2 gene |  | 
CC(C)=CCC/C(C)=C/CC/C(C)=C/CC/C(C)=C/COP(=O)(O)OP(=O)(O)O [geranylgeranyl pyrophosphate] |  | reduced | 
CC(C)CCC[C@@H](C)[C@H]1CC[C@H]2[C@@H]3CC=C4C[C@@H](O)CC[C@]4(C)[C@H]3CC[C@]12C [cholesterol] |  | not affected | 
